Results taken from US6447801B1, “Anti-parasitic action of N,N-diethyl-m-toluamide (deet) and formulations that prolong its activity in the skin” (priority 1997, dated 2002).

Assay: Disposition of 14C-DEET and 14C-Lipodeet after skin application (skin, blood, urine, bedding radioactivity)
Protocol: In this series of experiments, 11.472 mg of ^14C-DEET of ^14C-Lipodeet (in 100 μl) was applied to 5 cm^2 area of the mice abdominal skin. At different time points (15 min, 30 min, 60 min, 2 hrs., 4 hrs., 24 hrs., 48 hrs. and 72 hrs.) after application, the whole area of skin where the lipodeet had been applied was collected, underlying tissue removed and the radioactivity measured in a Beckman β-counter. Samples of blood and urine were also collected at these time points from each mouse to measure the radioactivity (n=10 for each time point). […] In this study, we made observations only up to 72 hrs. […] There are two possibilities, (1) substantial quantities of both DEET and Lipodeet are absorbed systemically through the skin within 24 hrs., or (2) both the chemicals are lost in the bedding due to direct contact of the applied area to the bedding materials. The first hypothesis was tested by measuring ^14C levels in the blood and urine in these animals.

CCN(CC)C(=O)c1cccc(C)c1 [DEET, N,N-diethyl-m-toluamide]
amount in the superficial layers of the skin (11.472 mg on 5 cm^2, by 24 hrs): nearly all of the DEET applied to the skin has been cleared from the superficial layers
lost from the skin (during 4 to 24 hrs after application): 100%
